Measured values from patent US20250179436A1, “HUMAN FATTY-LIVER MODEL CELLS” (PhoenixBio Co., Ltd., priority 2019, published 2025).

Key:
PXB-cells [1] = assay: Fat droplets in PXB-cells cultured in medium with or without DMSO (photomicrograph); format: cell-based, human; conditions: 2% DMSO, PXB-cells cultured 5 days
Description: The following day of seeding, medium A was removed. Instead, 500 μL of medium B (DMSO (+)) or medium C (DMSO (−)) was added. The plate was gently placed in an incubator (37° C., 5% CO2) and the cells were cultured for 5 days. After completion of culture, an image of the cells was taken by a photomicrographic camera. Then, the culture supernatant was recovered and subjected to analysis for lipoprotein in the culture supernatant described below.

PXB-cells [2] = assay: Total neutral fat of lipoproteins in culture supernatant of PXB-cells cultured with or without DMSO; format: cell-based, human; conditions: 2% DMSO, PXB-cells cultured 5 days
Description: The following day of seeding, medium A was removed. Instead, 500 μL of medium B (DMSO (+)) or medium C (DMSO (−)) was added. The plate was gently placed in an incubator (37° C., 5% CO2) and the cells were cultured for 5 days. After completion of culture, an image of the cells was taken by a photomicrographic camera. Then, the culture supernatant was recovered and subjected to analysis for lipoprotein in the culture supernatant described below. Lipoproteins contained in the culture supernatants of PXB-cells, HepG2 cells and HuH7 cells were analyzed by using LipoSEARCH (registered trademark) method (Skylight Biotech, Inc.). After completion of the culture mentioned above, the medium used in the culture was removed and 500 μL of medium D for analysis was added. The culture plate was gently placed in an incubator (37° C., 5% CO2) and the cells were cultured for 2 days. Thereafter, the culture supernatant was recovered, lipoproteins contained in the culture supernatant (80 μL) were fractionated into 4 types of subgroups, CM, VLDL, LDL and HDL fractions, by gel filtration HPLC. Cholesterol and neutral fat (triglyceride) contained in individual fractions were quantified by online enzyme reactions. […]

PXB-cells [3] = assay: Human albumin content in culture supernatant of PXB-cells (immunoturbidimetric method), toxicity index; format: cell-based; conditions: 2 days
PXB-cells [4] = assay: Screening test: total cholesterol and total neutral fat (triglyceride) in PXB-cells (Cholestest); format: cell-based, human; conditions: lomitapide 1, 10, 100 μM, 2 days; PXB-cells pre-cultured 12 days in medium B (DMSO (+)); vs ethanol control
Description: Triglyceride in cells was measured by use of Cholestest (registered trademark) TG (Sekisui Medical Co., Ltd.) in accordance with the instruction by the manufacturer. More specifically, the cells were washed with PBS, and then, completely dewatered (stored at −80° C. until measurement). To each well containing the cells, 200 μL of TG enzyme solution (1) was added. A reaction was allowed to proceed while keeping the cells warm at 37° C. for 10 minutes (free glycerol was removed). Then, the cells were torn away by pipetting, transferred to a centrifuge tube and centrifuged at 10,000 rpm×10 minutes. Then, the supernatant (7.5 μL) was transferred to a 96-well microplate. […] The resultant reaction product was subjected to measurement of absorbance at 550 nm. The content of triglyceride was calculated based on HDL-C180A as the reference (triglyceride concentration of HDL-C180A was 52.26 mg/dL).
Intracellular cholesterol was measured by use of Cholestest (registered trademark) CHO (Sekisui Medical Co., Ltd.) in accordance with the instruction by the manufacturer. […] The resultant reaction product was subjected to measurement of absorbance at 550 nm. The content of cholesterol was calculated based on HDL-C180A as the standard ([…] concentration of HDL-C180A was 152.67 mg/dL). […]

PXB-cells [5] = assay: Screening test: total cholesterol and total neutral fat (triglyceride) in culture supernatant of PXB-cells (LipoSEARCH); format: cell-based, human; conditions: lomitapide 1, 10, 100 μM, 2 days; PXB-cells pre-cultured 12 days in medium B (DMSO (+)); vs ethanol control
Description: Lipoproteins contained in the culture supernatants of PXB-cells, HepG2 cells and HuH7 cells were analyzed by using LipoSEARCH (registered trademark) method (Skylight Biotech, Inc.).
After completion of the culture mentioned above, the medium used in the culture was removed and 500 μL of medium D for analysis was added. The culture plate was gently placed in an incubator (37° C., 5% CO2) and the cells were cultured for 2 days. Thereafter, the culture supernatant was recovered, lipoproteins contained in the culture supernatant (80 μL) were fractionated into 4 types of subgroups, CM, VLDL, LDL and HDL fractions, by gel filtration HPLC. Cholesterol and neutral fat (triglyceride) contained in individual fractions were quantified by online enzyme reactions. […]
Each test substance was suspended with ethanol and added in a predetermined amount to a PXB-cell culture, gently placed in an incubator (37° C., 5% CO2) and cultured for 2 days. After completion of culture, the total cholesterol and total neutral fat (triglyceride) in culture supernatant and in cells were measured in accordance with the methods described in the sections “Analysis of lipoprotein in culture supernatant” and “Analysis of lipoprotein in cells”. […]

C[S+](C)[O-] [DMSO, dimethyl sulfoxide]
number of fat droplets, medium B (DMSO (+)) compared to medium C (DMSO (−)) (PXB-cells [1]): about double | secretion of total neutral fat (triglyceride) in lipoproteins, medium B (DMSO (+)) relative to medium C (DMSO (−)) (PXB-cells [2]): about 9 times

O=C(NC1CCN(CCCCC2(C(=O)NCC(F)(F)F)c3ccccc3-c3ccccc32)CC1)c1ccccc1-c1ccc(C(F)(F)F)cc1 [lomitapide]
content of human albumin in the culture supernatant (PXB-cells [3]; lomitapide 1, 10, 100 μM, PXB-cells in medium B (DMSO (+))): decreased depending on the addition amount | toxicity (based on human albumin content) (PXB-cells [3]; lomitapide, high amount (1-100 μM tested), PXB-cells): toxic | total cholesterol content in the cells (PXB-cells [4]): no significant decrease | total neutral fat (triglyceride) content in the cells (PXB-cells [4]): no significant decrease | total cholesterol content in the culture supernatants (PXB-cells [5]): significantly decreased | total neutral fat (triglyceride) content in the culture supernatants (PXB-cells [5]): significantly decreased

CCC(C)(C)C(=O)O[C@H]1C[C@@H](C)C=C2C=C[C@H](C)[C@H](CC[C@@H]3C[C@@H](O)CC(=O)O3)[C@H]21 [simvastatin]
human albumin content in the culture supernatant (PXB-cells [3]; simvastatin 0.1, 1, 10 μM, PXB-cells in medium B (DMSO (+))): no significant decrease
